Activity calls are given as the source filed them. No cut-off for these calls is given here.
Columns and labels:
Ephrin type-A receptor 2 = Ephrin type-A receptor 2 (Mus musculus, UniProt Q03145); assay: Displacement of biotinylated ephrin-A1-Fc from recombinant mouse c-terminal His6-tagged EphA2 Fc (Ala22 to Ala535 residues) preincubated for 1 hr followed by ephrin-A1-FC addition and measured after 4 hrs by ELISA
PC-3 = assay: Cytotoxicity against human PC3 cells after 2 hrs by LDH assay; type: cell-based; details: pc-3, 2 h
Chorioallantoic membrane = assay: Antiangiogenic activity in Leghorn chicken fertilized egg chorioallantoic membrane assessed as reduction in unstimulated neovascularization at 10 uM measured after 3 days by CAM assay; type: functional, tissue-based; details: Gallus gallus, time 3.0 day

Chain of Ephrin type-A receptor 2 (Q03145 whole entry): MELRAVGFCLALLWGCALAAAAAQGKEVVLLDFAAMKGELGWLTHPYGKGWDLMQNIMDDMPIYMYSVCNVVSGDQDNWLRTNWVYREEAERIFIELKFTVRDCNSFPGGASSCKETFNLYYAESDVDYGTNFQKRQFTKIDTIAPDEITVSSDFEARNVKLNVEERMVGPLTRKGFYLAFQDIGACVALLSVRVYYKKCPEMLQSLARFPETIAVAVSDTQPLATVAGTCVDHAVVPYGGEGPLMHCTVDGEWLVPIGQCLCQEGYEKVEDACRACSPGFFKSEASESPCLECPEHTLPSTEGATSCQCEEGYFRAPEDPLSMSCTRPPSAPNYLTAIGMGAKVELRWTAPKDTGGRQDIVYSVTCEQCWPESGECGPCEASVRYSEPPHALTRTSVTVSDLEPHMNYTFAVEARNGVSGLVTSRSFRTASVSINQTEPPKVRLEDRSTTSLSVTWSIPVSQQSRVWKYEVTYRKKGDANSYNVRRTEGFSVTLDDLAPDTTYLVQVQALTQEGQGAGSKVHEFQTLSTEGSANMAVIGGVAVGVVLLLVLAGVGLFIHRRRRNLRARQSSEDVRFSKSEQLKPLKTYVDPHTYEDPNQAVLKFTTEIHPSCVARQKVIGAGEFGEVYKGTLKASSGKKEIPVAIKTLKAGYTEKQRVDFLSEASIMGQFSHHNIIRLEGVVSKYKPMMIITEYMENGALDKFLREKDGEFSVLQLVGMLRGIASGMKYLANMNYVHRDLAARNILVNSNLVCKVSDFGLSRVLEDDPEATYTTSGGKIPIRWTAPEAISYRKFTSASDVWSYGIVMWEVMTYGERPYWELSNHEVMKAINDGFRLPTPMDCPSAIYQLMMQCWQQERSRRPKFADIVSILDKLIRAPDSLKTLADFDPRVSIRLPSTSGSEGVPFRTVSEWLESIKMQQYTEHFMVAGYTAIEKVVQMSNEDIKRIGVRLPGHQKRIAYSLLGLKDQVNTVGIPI

Compound	IC50 (Ephrin type-A receptor 2) [µM]	Activity (PC-3)	Activity (Chorioallantoic membrane)
C[C@H](CCC(=O)O)[C@H]1CC[C@H]2[C@@H]3CC[C@@H]4C[C@H](OC(=O)Nc5ccccc5)CC[C@]4(C)[C@H]3CC[C@]12C	38	–	–
C[C@H](CCC(=O)N[C@H](CC(=O)O)Cc1c[nH]c2ccccc12)[C@H]1CC[C@H]2[C@@H]3CC[C@@H]4C[C@H](OC(=O)Nc5ccccc5)CC[C@]4(C)[C@H]3CC[C@]12C	5.5	–	–
CCCCCCNC(=O)O[C@@H]1CC[C@@]2(C)[C@H](CC[C@@H]3[C@@H]2CC[C@]2(C)[C@@H]([C@H](C)CCC(=O)N[C@H](CC(=O)O)Cc4c[nH]c5ccccc45)CC[C@@H]32)C1	1.5	Non-Toxic	–
CCCCCCNC(=O)O[C@@H]1CC[C@@]2(C)[C@H](CC[C@@H]3[C@@H]2CC[C@]2(C)[C@@H]([C@H](C)CCC(=O)O)CC[C@@H]32)C1	3.3	–	–
C[C@H](CCC(=O)N[C@H](CC(=O)O)Cc1c[nH]c2ccccc12)[C@H]1CC[C@H]2[C@@H]3CC[C@@H]4C[C@H](OC(N)=O)CC[C@]4(C)[C@H]3CC[C@]12C	1.2	Non-Toxic	inactive
C[C@H](CCC(=O)N[C@H](CC(=O)O)Cc1c[nH]c2ccccc12)[C@H]1CC[C@H]2[C@@H]3CC[C@@H]4C[C@@H](OC(N)=O)CC[C@]4(C)[C@H]3CC[C@]12C	5.2	–	–
CC(C)NC(=O)O[C@@H]1CC[C@@]2(C)[C@H](CC[C@@H]3[C@@H]2CC[C@]2(C)[C@@H]([C@H](C)CCC(=O)O)CC[C@@H]32)C1	12	–	–
C[C@H](CCC(=O)O)[C@H]1CC[C@H]2[C@@H]3CC[C@@H]4C[C@H](OC(=O)NC5CCCCC5)CC[C@]4(C)[C@H]3CC[C@]12C	2.7	–	–
C[C@H](CCC(=O)O)[C@H]1CC[C@H]2[C@@H]3CC[C@@H]4C[C@H](OC(N)=O)CC[C@]4(C)[C@H]3CC[C@]12C	17	–	–
CCCCNC(=O)O[C@@H]1CC[C@@]2(C)[C@H](CC[C@@H]3[C@@H]2CC[C@]2(C)[C@@H]([C@H](C)CCC(=O)N[C@H](CC(=O)O)Cc4c[nH]c5ccccc45)CC[C@@H]32)C1	1.1	Non-Toxic	–

Further lines, with some results ahead:

IC50 (Ephrin type-A receptor 2) [µM]	Compound	Activity (PC-3)	Activity (Chorioallantoic membrane)
30	CCNC(=O)O[C@@H]1CC[C@@]2(C)[C@H](CC[C@@H]3[C@@H]2CC[C@]2(C)[C@@H]([C@H](C)CCC(=O)O)CC[C@@H]32)C1	–	–
15	CCCCCCCCNC(=O)O[C@@H]1CC[C@@]2(C)[C@H](CC[C@@H]3[C@@H]2CC[C@]2(C)[C@@H]([C@H](C)CCC(=O)N[C@H](CC(=O)O)Cc4c[nH]c5ccccc45)CC[C@@H]32)C1	–	–
4.5	CCCCCCCCNC(=O)O[C@@H]1CC[C@@]2(C)[C@H](CC[C@@H]3[C@@H]2CC[C@]2(C)[C@@H]([C@H](C)CCC(=O)O)CC[C@@H]32)C1	–	–
1.2	C[C@H](CCC(=O)N[C@H](CC(=O)O)Cc1c[nH]c2ccccc12)[C@H]1CC[C@H]2[C@@H]3CC[C@@H]4C[C@H](OC(=O)NC5CCCCC5)CC[C@]4(C)[C@H]3CC[C@]12C	Non-Toxic	–
9.1	C[C@H](CCC(=O)O)[C@H]1CC[C@H]2[C@@H]3CC[C@@H]4C[C@@H](OC(N)=O)CC[C@]4(C)[C@H]3CC[C@]12C	–	–
3.7	CCCCNC(=O)O[C@@H]1CC[C@@]2(C)[C@H](CC[C@@H]3[C@@H]2CC[C@]2(C)[C@@H]([C@H](C)CCC(=O)O)CC[C@@H]32)C1	–	–
7.1	CC(C)NC(=O)O[C@@H]1CC[C@@]2(C)[C@H](CC[C@@H]3[C@@H]2CC[C@]2(C)[C@@H]([C@H](C)CCC(=O)N[C@H](CC(=O)O)Cc4c[nH]c5ccccc45)CC[C@@H]32)C1	–	–

From ChEMBL document CHEMBL4680187, “Optimization of EphA2 antagonists based on a lithocholic acid core led to the identification of UniPR505, a new 3α-carbamoyloxy derivative with antiangiogenetic properties” (Eur J Med Chem, 2020)
